# Patent US10286034B2, “Uses of bremelanotide in therapy for female sexual dysfunction” (Palatin Technologies, Inc., priority 2012, dated 2019)
# Marks after values point to notes of the source that are not given here.
# Tests used:
# Assay type in all cases: in vivo, human
# [1] = Example 1: ambulatory blood pressure monitoring after in-clinic dose; conditions: for SBP: treatment group difference (from placebo) in mean change / DBP: treatment group difference (from placebo) in mean change: in mmHg (unit assumed); for HR-BP Product: treatment group difference (from placebo) in mean change: in mmHg·bpm (unit assumed); for Pulse: treatment group difference (from placebo) in mean change: in bpm
# Protocol: Ambulatory blood pressure monitoring was conducted following both placebo and randomized treatment group in-clinic administrations. Three periods of ambulatory blood pressure monitoring were included, the first period was from before to 24 hours after a single, in-clinic dose of placebo (to establish a baseline); the second and third periods occurred from before to 24 hours after each of 2 single, in-clinic doses of double-blind treatment, administered within 14 days of each other. Blood samples for pharmacokinetic analysis were collected before and at 0.5, 1.0, and 2.0 hours after each in-clinic bremelanotide single-dose treatment (double-blind only), to permit analysis of concentration-response relationships.
# Mean changes in blood pressure were characterized in all subjects based on sequential supervised dosing of single-blind subcutaneous placebo and two doses of randomized study drug. The primary analysis for mean changes was the difference between treatment groups in the change from single-blind placebo to randomized drug (Visit 2 vs. Visits 5/7). There were between 86 to 100 subjects in each dose group.
# Although there were an increased number of outliers for maximal changes from baseline in systolic blood pressure in drug-treated patients, the duration of these events was quite limited. The interrogation interval during ambulatory blood pressure monitoring assessments of 15 minutes allowed definition of the maximal duration of such excursions. […] The clinical significance of such changes, if any, is small.
# [2] = Pharmacokinetics of subcutaneous administration in healthy adult males; conditions: after subcutaneous administration
# Source text: Results of Tmax values were compared between subcutaneous administration (SC) and intranasal (IN) administration of various doses of bremelanotide, as shown in FIG. 1.
# [3] = Adverse events with single-dose SC administration (Trials -14, -06, -10)
# Protocol: Subcutaneous dosing was tested in 5 Phase 1 trials (3 in females, 2 in males) and one Phase 2 trial (males). The most common adverse events associated with single-dose SC bremelanotide administration (Trials −14, −06, and −10) were somnolence (30%), flushing (15%), nausea (19%), and vomiting (10%).
# [4] = Intranasal 10 mg Phase 2 studies in women with FSAD: plasma concentration 30 minutes post dose; conditions: 10 mg intranasal
# Protocol: In the bremelanotide premenopausal arm, 42.5% of the subjects were discontinued due to hypertension, nausea, vomiting or myalgia. Subjects received a 10 mg intranasal dose of bremelanotide, with premenopausal subjects determined to have a mean plasma concentration of 88.5±51.9 ng/mL and a % CV of 58.6, and postmenopausal subjects determined to have a mean plasma concentration of 93.2±68.5 ng/mL and a % CV of 73.5. The minimum and maximum plasma concentration levels for all women at thirty minutes post dose range from 0.0 ng/mL to 207.0 ng/mL.
# In the intranasal study, premenopausal women self-administered a 10 mg intranasal dose.
# [5] = 1.25 mg SC, interval 8-24 h, V5
# [6] = 1.25 mg SC, interval 8-24 h, V7
# [7] = 1.75 mg SC, interval 0-24 h, V5
# [8] = 1.75 mg SC, interval 0-24 h, V7
# [9] = 1.75 mg SC, interval 8-24 h, V5
# [10] = 1.75 mg SC, interval 8-24 h, V7
# [11] = all women, thirty minutes post dose
smiles,measurement,setting,value
"CCCC[C@H](NC(C)=O)C(=O)N[C@H]1CC(=O)NCCCC[C@@H](C(=O)O)NC(=O)[C@H](Cc2c[nH]c3ccccc23)NC(=O)[C@H](CCCNC(=N)N)NC(=O)[C@@H](Cc2ccccc2)NC(=O)[C@H](Cc2c[nH]cn2)NC1=O [bremelanotide, Ac-Nle-cyclo(-Asp-His-D-Phe-Arg-Trp-Lys)-OH]",SBP: treatment group difference (from placebo) in mean change,"[1]; 1.25 mg SC, interval 4-8 h, V7",1.3*
same,HR-BP Product: treatment group difference (from placebo) in mean change,"[1]; 1.25 mg SC, interval 4-8 h, V7",−669.7*
same,Pulse: treatment group difference (from placebo) in mean change,[1]; [5],−1.5
same,DBP: treatment group difference (from placebo) in mean change,[1]; [5],1.4*
same,SBP: treatment group difference (from placebo) in mean change,[1]; [5],0.7
same,HR-BP Product: treatment group difference (from placebo) in mean change,[1]; [5],−127.4
same,Pulse: treatment group difference (from placebo) in mean change,[1]; [6],−0.7
same,DBP: treatment group difference (from placebo) in mean change,[1]; [6],1.7*
same,SBP: treatment group difference (from placebo) in mean change,[1]; [6],1.5*
same,HR-BP Product: treatment group difference (from placebo) in mean change,[1]; [6],4.2
same,Pulse: treatment group difference (from placebo) in mean change,"[1]; 1.75 mg SC, interval 0-4 h, V5",−4.6*
same,DBP: treatment group difference (from placebo) in mean change,"[1]; 1.75 mg SC, interval 0-4 h, V5",3.2*
same,SBP: treatment group difference (from placebo) in mean change,"[1]; 1.75 mg SC, interval 0-4 h, V5",3.1*
same,HR-BP Product: treatment group difference (from placebo) in mean change,"[1]; 1.75 mg SC, interval 0-4 h, V5",−305.9
same,Pulse: treatment group difference (from placebo) in mean change,"[1]; 1.75 mg SC, interval 0-4 h, V7",−4.7*
same,DBP: treatment group difference (from placebo) in mean change,"[1]; 1.75 mg SC, interval 0-4 h, V7",2.6*
same,SBP: treatment group difference (from placebo) in mean change,"[1]; 1.75 mg SC, interval 0-4 h, V7",2.5*
same,HR-BP Product: treatment group difference (from placebo) in mean change,"[1]; 1.75 mg SC, interval 0-4 h, V7",−375.4*
same,Pulse: treatment group difference (from placebo) in mean change,[1]; [7],−2.2*
same,DBP: treatment group difference (from placebo) in mean change,[1]; [7],1.9*
same,SBP: treatment group difference (from placebo) in mean change,[1]; [7],1.6
same,HR-BP Product: treatment group difference (from placebo) in mean change,[1]; [7],−139.1
same,Pulse: treatment group difference (from placebo) in mean change,[1]; [8],−2.2*
same,DBP: treatment group difference (from placebo) in mean change,[1]; [8],1.8*
same,SBP: treatment group difference (from placebo) in mean change,[1]; [8],1.3
same,HR-BP Product: treatment group difference (from placebo) in mean change,[1]; [8],−184.1
same,Pulse: treatment group difference (from placebo) in mean change,"[1]; 1.75 mg SC, interval 4-8 h, V5",−6.6*
same,DBP: treatment group difference (from placebo) in mean change,"[1]; 1.75 mg SC, interval 4-8 h, V5",2.3*
same,SBP: treatment group difference (from placebo) in mean change,"[1]; 1.75 mg SC, interval 4-8 h, V5",2.1
same,HR-BP Product: treatment group difference (from placebo) in mean change,"[1]; 1.75 mg SC, interval 4-8 h, V5",−608.1*
same,Pulse: treatment group difference (from placebo) in mean change,"[1]; 1.75 mg SC, interval 4-8 h, V7",−6.6*
same,DBP: treatment group difference (from placebo) in mean change,"[1]; 1.75 mg SC, interval 4-8 h, V7",2.2*
same,SBP: treatment group difference (from placebo) in mean change,"[1]; 1.75 mg SC, interval 4-8 h, V7",2.2
same,HR-BP Product: treatment group difference (from placebo) in mean change,"[1]; 1.75 mg SC, interval 4-8 h, V7",−624.5*
same,Pulse: treatment group difference (from placebo) in mean change,[1]; [9],−0.8
same,DBP: treatment group difference (from placebo) in mean change,[1]; [9],1.4*
same,SBP: treatment group difference (from placebo) in mean change,[1]; [9],0.9
same,HR-BP Product: treatment group difference (from placebo) in mean change,[1]; [9],−23.7
same,Pulse: treatment group difference (from placebo) in mean change,[1]; [10],−0.5
same,DBP: treatment group difference (from placebo) in mean change,[1]; [10],1.4
same,SBP: treatment group difference (from placebo) in mean change,[1]; [10],0.6
same,HR-BP Product: treatment group difference (from placebo) in mean change,[1]; [10],−31.3
same,maximal change in systolic pressure,"[1]; 1.75 mg dosing group, average of Visits 5 and 7",3.15 mm Hg
same,change in blood pressure,"[1]; drug treated subjects, predominantly within 4 hours of dosing",~2 mm Hg
same,time to quantifiable concentrations in plasma,[2],≤ 15 min
same,flushing incidence,[3],15%
same,nausea incidence,[3],19%
same,somnolence incidence,[3],30%
same,vomiting incidence,[3],10%
same,maximum plasma concentration level,[4]; [11],207.0 ng/mL
same,minimum plasma concentration level,[4]; [11],0.0 ng/mL
same,% CV of plasma concentration,[4]; postmenopausal subjects,73.5%
same,% CV of Cmax (plasma concentration),"[4]; premenopausal women, 30 minutes post dosing",58.6%
same,level at 0.5 h,"[4]; female, human, plasma, inhaled or intranasal, postmenopausal subjects",0.0932 ± 0.0685 µg/mL
